From patent publication US12357619B2, “Noradrenergic and specific serotonergic anxiolytic and antidepressant, method for the production and use thereof” (ALLA CHEM, LLC, priority 2020, dated 2025)
Where two headings read alike, the source gives them in different places.

Assays:
[1] = Pharmacokinetics, single and multiple dosing of capsules in volunteers (Example 11); type: in vivo, human; conditions: for half-life / Tmax: human, in vivo, oral
Method: Example 11. Safety study of increasing doses of the oral drug of this invention made as a pharmaceutical composition of this invention in capsules. Clinical safety study of increasing doses of the antipsychotic drug made as a pharmaceutical composition of this invention in capsules for single and multiple dosing. The study covered one cohort of 4 volunteers taking antipsychotic drug once at a dose of 20 mg, and then at the same dose 2 times a day for 4 days. Based on the three-week safety data obtained in the 20-mg cohort taking antipsychotic drug twice a day, the independent safety data monitoring Committee took a decision to involve a second cohort of 4 volunteers, in which the antipsychotic drug under test was taken once at a dose of 20 mg and then 3 times a day for 4 days at the same dose.

[2] = test system: people with generalized anxiety disorder (GAD); assay: Randomized double-blind placebo-controlled GAD study, adverse events; type: in vivo, human
Method: Example 12. Efficacy and safety study of the oral drug of this invention made as a pharmaceutical composition of this invention in capsules. […] During the study, 3 scheduled visits were conducted in Week 2, Week 4, and Week 8 to assess the effectiveness and safety of the therapy as well as drug inventory and administration. During all of those visits, the patient's diary was checked, a drug inventory was made and the patients' compliance was assessed. In addition, adverse events, concomitant therapy, and vital signs were evaluated, urine drug screen was performed, and assessments using Hamilton Anxiety Rating Scale (HARS), Hamilton Depression Scale (HAMD), Clinical Global Impression-Severity (CGI-S), Clinical Global Impression-Improvement (CGI-I), and Visual Analog Scale (VAS) were made; women of child-bearing potential will take a urine pregnancy test. Also, during visits at Week 4 and Week 8 a physical examination was performed, body weight was measured, an ECG was performed in 12 leads and blood and urine samples were obtained for laboratory tests, namely: urinalysis and biochemical blood analysis, PK analysis before and 1 hour after taking the study drug (SD), and urinalysis. At Week 4, a blood sample was also obtained for genotyping by CYP2D6. At Week 8, treatment in the groups was completed, and all patients were prescribed a placebo to be taken during the follow-up period, which lasted 1 week. During this time, a possible development of SD withdrawal syndrome against the background of placebo was evaluated. During the visit at Week 9, the patient's diary was checked, a drug inventory was made and the patients' compliance was assessed. In addition, adverse events, concomitant therapy, and vital signs were evaluated, urine drug screen was performed, and assessments using the Hamilton Anxiety Rating Scale (HARS), Hamilton Depression Scale (HAMD), Clinical Global Impression-Severity (CGI-S), Clinical Global Impression-Improvement (CGI-I), and Visual Analog Scale (VAS) were made; women of child-bearing age will take a urine pregnancy test. At this point, the patients' participation in the study was completed, and they received recommendations for further treatment as part of standard GAD therapy.

healthy volunteers = assay: Safety, single oral administration of capsules in healthy volunteers (Example 10); type: in vivo, human
Method: Example 10. Clinical study of the safety of the oral drug of this invention. An open-label clinical trial of the pharmacokinetics of the antipsychotic drug made as a pharmaceutical composition of this invention in capsules, was conducted with a single oral administration in 32 healthy volunteers at doses of 2 mg/day (cohort 1, 8 volunteers), 4 mg/day (cohort 1, 8 volunteers), 10 mg/day (cohort 1, 8 volunteers), and 20 mg/day (cohort 1, 8 volunteers), expressed as base A, in accordance with the recommendations of “Good clinical practice (GCP)” on physically and mentally healthy men aged 20-50 years with a body mass index of […].

[3] = test system: people with generalized anxiety disorder (GAD); assay: Randomized double-blind placebo-controlled GAD study, visual analog scale (VAS); type: in vivo, human; conditions: after 8 weeks
Method: Example 12. Efficacy and safety study of the oral drug of this invention made as a pharmaceutical composition of this invention in capsules. […] During the study, 3 scheduled visits were conducted in Week 2, Week 4, and Week 8 to assess the effectiveness and safety of the therapy as well as drug inventory and administration. During all of those visits, the patient's diary was checked, a drug inventory was made and the patients' compliance was assessed. In addition, adverse events, concomitant therapy, and vital signs were evaluated, urine drug screen was performed, and assessments using Hamilton Anxiety Rating Scale (HARS), Hamilton Depression Scale (HAMD), Clinical Global Impression-Severity (CGI-S), Clinical Global Impression-Improvement (CGI-I), and Visual Analog Scale (VAS) were made; women of child-bearing potential will take a urine pregnancy test. Also, during visits at Week 4 and Week 8 a physical examination was performed, body weight was measured, an ECG was performed in 12 leads and blood and urine samples were obtained for laboratory tests, namely: urinalysis and biochemical blood analysis, PK analysis before and 1 hour after taking the study drug (SD), and urinalysis. At Week 4, a blood sample was also obtained for genotyping by CYP2D6. […] During this time, a possible development of SD withdrawal syndrome against the background of placebo was evaluated. […]

Serotonin 5-HT7 = Serotonin 5-HT7 (Homo sapiens, UniProt P34969); assay: Receptor activities, Ki (Table 1); type: binding
[4] = single doses of 2, 4, 10, and 20 mg, healthy volunteers

Chain of Serotonin 5-HT7 (P34969 whole entry): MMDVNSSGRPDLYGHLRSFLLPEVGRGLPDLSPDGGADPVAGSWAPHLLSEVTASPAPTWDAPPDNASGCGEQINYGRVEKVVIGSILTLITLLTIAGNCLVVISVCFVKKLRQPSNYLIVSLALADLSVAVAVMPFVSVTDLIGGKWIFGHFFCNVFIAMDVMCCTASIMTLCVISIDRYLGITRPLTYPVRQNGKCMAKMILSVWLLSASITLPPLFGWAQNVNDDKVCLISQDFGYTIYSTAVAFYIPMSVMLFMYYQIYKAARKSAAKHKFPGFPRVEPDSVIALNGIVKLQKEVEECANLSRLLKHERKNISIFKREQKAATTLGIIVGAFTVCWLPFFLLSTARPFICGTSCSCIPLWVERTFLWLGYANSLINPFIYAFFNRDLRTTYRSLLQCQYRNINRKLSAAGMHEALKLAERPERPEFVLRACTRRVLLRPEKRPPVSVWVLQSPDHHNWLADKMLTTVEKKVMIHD

Cc1ccc2c(c1)c1c(n2CCc2ccccc2)CCN(C)C1.Cl [A•HCl, 2,8-dimethyl-5-(2-phenylethyl)-2,3,4,5-tetrahydro-1H-pyrido[4,3-b]indole hydrochloride]
Accumulation factor (Fc) ([1]; 40-mg cohort): 2.5
Accumulation factor (Fc) ([1]; 60-mg cohort): 2.1
half-life ([1]; 20 mg, single dose, 40-mg cohort): 10.3 ± 5.4 h
Tmax ([1]; 20 mg, single dose, 40-mg cohort, read-out: Tmax, median): 0.75 h
half-life ([1]; 20 mg, single dose, 60-mg cohort): 7.3 ± 2.6 h
Tmax ([1]; 20 mg, single dose, 60-mg cohort, read-out: Tmax, median): 2.3 h
Tmax ([1]; 20 mg, single dose, majority of volunteers, read-out: Tmax, variation): 0.5 to 4 h
Tmax ([1]; 40 mg/day, repeated doses, 40-mg cohort, read-out: Tmax, median): 0.38 h
Tmax ([1]; 60 mg/day, repeated doses, 60-mg cohort, read-out: Tmax, median): 1 h
Time to stabilization of the residual concentration after the start of regular drug administration ([1]; multiple dosing): 1 to 2 days
Tmax, variability range ([1]; repeated doses): 0.3 to 4 h
Increase in T1/2 after repeated administration, on an average ([1]; repeated vs single administration): 1.4 times
Adverse effect Bitter taste in mouth, pain in the left hypochondrium, % ([2]; 40 mg/day, 42 patients): 0.0%
Adverse effect Bitter taste in mouth, pain in the left hypochondrium, N (number of people) ([2]; 40 mg/day, 42 patients): 0
Adverse effect Constipation, % ([2]; 40 mg/day, 42 patients): 0.0%
Adverse effect Constipation, N (number of people) ([2]; 40 mg/day, 42 patients): 0
Adverse effect Daytime drowsiness, % ([2]; 40 mg/day, 42 patients): 2.4%
Adverse effect Daytime drowsiness, N (number of people) ([2]; 40 mg/day, 42 patients): 1
Adverse effect Decreased appetite, % ([2]; 40 mg/day, 42 patients): 2.4%
Adverse effect Decreased appetite, N (number of people) ([2]; 40 mg/day, 42 patients): 1
Adverse effect Dizziness, % ([2]; 40 mg/day, 42 patients): 0.0%
Adverse effect Dizziness, N (number of people) ([2]; 40 mg/day, 42 patients): 0
Adverse effect Elevated creatinine kinase level, % ([2]; 40 mg/day, 42 patients): 0.0%
Adverse effect Elevated creatinine kinase level, N (number of people) ([2]; 40 mg/day, 42 patients): 0
Adverse effect Headache, % ([2]; 40 mg/day, 42 patients): 4.8%
Adverse effect Headache, N (number of people) ([2]; 40 mg/day, 42 patients): 2
Adverse effect Impaired concentration, % ([2]; 40 mg/day, 42 patients): 0.0%
Adverse effect Impaired concentration, N (number of people) ([2]; 40 mg/day, 42 patients): 0
Adverse effect Increased psychic tension, % ([2]; 40 mg/day, 42 patients): 0.0%
Adverse effect Increased psychic tension, N (number of people) ([2]; 40 mg/day, 42 patients): 0
Adverse effect Insomnia, % ([2]; 40 mg/day, 42 patients): 2.4%
Adverse effect Insomnia, N (number of people) ([2]; 40 mg/day, 42 patients): 1
Adverse effect Jaw reduction, % ([2]; 40 mg/day, 42 patients): 0.0%
Adverse effect Jaw reduction, N (number of people) ([2]; 40 mg/day, 42 patients): 0
Adverse effect Low hemoglobin level, % ([2]; 40 mg/day, 42 patients): 2.4%
Adverse effect Low hemoglobin level, N (number of people) ([2]; 40 mg/day, 42 patients): 1
Adverse effect Nausea, % ([2]; 40 mg/day, 42 patients): 0.0%
Adverse effect Nausea, N (number of people) ([2]; 40 mg/day, 42 patients): 0
Adverse effect Nocturnal awakening, % ([2]; 40 mg/day, 42 patients): 0.0%
Adverse effect Nocturnal awakening, N (number of people) ([2]; 40 mg/day, 42 patients): 0
Adverse effect Sleepiness, % ([2]; 40 mg/day, 42 patients): 2.4%
Adverse effect Sleepiness, N (number of people) ([2]; 40 mg/day, 42 patients): 1
Adverse effect Tension in the body (back, arms, legs), % ([2]; 40 mg/day, 42 patients): 0.0%
Adverse effect Tension in the body (back, arms, legs), N (number of people) ([2]; 40 mg/day, 42 patients): 0
Adverse effect Tingling in the hands, % ([2]; 40 mg/day, 42 patients): 0.0%
Adverse effect Tingling in the hands, N (number of people) ([2]; 40 mg/day, 42 patients): 0
Adverse effect Weakness, % ([2]; 40 mg/day, 42 patients): 0.0%
Adverse effect Weakness, N (number of people) ([2]; 40 mg/day, 42 patients): 0
Adverse effect Bitter taste in mouth, pain in the left hypochondrium, % ([2]; 60 mg/day, 44 patients): 2.3%
Adverse effect Bitter taste in mouth, pain in the left hypochondrium, N (number of people) ([2]; 60 mg/day, 44 patients): 1
Adverse effect Constipation, % ([2]; 60 mg/day, 44 patients): 2.3%
Adverse effect Constipation, N (number of people) ([2]; 60 mg/day, 44 patients): 1
Adverse effect Daytime drowsiness, % ([2]; 60 mg/day, 44 patients): 0.0%
Adverse effect Daytime drowsiness, N (number of people) ([2]; 60 mg/day, 44 patients): 0
Adverse effect Decreased appetite, % ([2]; 60 mg/day, 44 patients): 0.0%
Adverse effect Decreased appetite, N (number of people) ([2]; 60 mg/day, 44 patients): 0
Adverse effect Dizziness, % ([2]; 60 mg/day, 44 patients): 9.1%
Adverse effect Dizziness, N (number of people) ([2]; 60 mg/day, 44 patients): 4
Adverse effect Elevated creatinine kinase level, % ([2]; 60 mg/day, 44 patients): 2.3%
Adverse effect Elevated creatinine kinase level, N (number of people) ([2]; 60 mg/day, 44 patients): 1
Adverse effect Headache, % ([2]; 60 mg/day, 44 patients): 13.6%
Adverse effect Headache, N (number of people) ([2]; 60 mg/day, 44 patients): 6
Adverse effect Impaired concentration, % ([2]; 60 mg/day, 44 patients): 2.3%
Adverse effect Impaired concentration, N (number of people) ([2]; 60 mg/day, 44 patients): 1
Adverse effect Increased psychic tension, % ([2]; 60 mg/day, 44 patients): 4.5%
Adverse effect Increased psychic tension, N (number of people) ([2]; 60 mg/day, 44 patients): 2
Adverse effect Insomnia, % ([2]; 60 mg/day, 44 patients): 0.0%
Adverse effect Insomnia, N (number of people) ([2]; 60 mg/day, 44 patients): 0
Adverse effect Jaw reduction, % ([2]; 60 mg/day, 44 patients): 2.3%
Adverse effect Jaw reduction, N (number of people) ([2]; 60 mg/day, 44 patients): 1
Adverse effect Low hemoglobin level, % ([2]; 60 mg/day, 44 patients): 0.0%
Adverse effect Low hemoglobin level, N (number of people) ([2]; 60 mg/day, 44 patients): 0
Adverse effect Nausea, % ([2]; 60 mg/day, 44 patients): 4.5%
Adverse effect Nausea, N (number of people) ([2]; 60 mg/day, 44 patients): 2
Adverse effect Nocturnal awakening, % ([2]; 60 mg/day, 44 patients): 2.3%
Adverse effect Nocturnal awakening, N (number of people) ([2]; 60 mg/day, 44 patients): 1
Adverse effect Sleepiness, % ([2]; 60 mg/day, 44 patients): 15.9%
Adverse effect Sleepiness, N (number of people) ([2]; 60 mg/day, 44 patients): 7
Adverse effect Tension in the body (back, arms, legs), % ([2]; 60 mg/day, 44 patients): 2.3%
Adverse effect Tension in the body (back, arms, legs), N (number of people) ([2]; 60 mg/day, 44 patients): 1
Adverse effect Tingling in the hands, % ([2]; 60 mg/day, 44 patients): 2.3%
Adverse effect Tingling in the hands, N (number of people) ([2]; 60 mg/day, 44 patients): 1
Adverse effect Weakness, % ([2]; 60 mg/day, 44 patients): 6.8%
Adverse effect Weakness, N (number of people) ([2]; 60 mg/day, 44 patients): 3
Safety profile and tolerability in patients ([2]; GAD patients, 40 and 60 mg/day, 8 weeks): favorable safety profile and good tolerability
Side effects observed ([2]; dose of 60 mg, GAD patients): headache, drowsiness, dizziness, weakness, nausea, increased anxiety
Side effects observed (healthy volunteers; 20-mg cohort, single dose): drowsiness, agitation and paresthesia
Effect on the parameters of plasma and urine (healthy volunteers; [4]): neither significantly affect the parameters of plasma and urine
Tolerability (healthy volunteers; [4]): well tolerated
VAS average change (standard error) ([3]; 40 mg, N = 42, average at Week 0 24.1): −9.5 (3.24)
VAS average change (standard error) ([3]; 60 mg, N = 44, average at Week 0 27.4): −11.1 (3.23)
Ki (Serotonin 5-HT7): 0.153 nM
